Results published in PubChem BioAssay (NCI).
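Growth conditions: 96-well plates. Treatment: test compound, 48 hours, 5 concentrations. Analysis: linear interpolation between bracketing concentrations; unreached endpoints set to highest concentration. GI50: concentration for 50% inhibition of growth. TGI: concentration producing complete growth inhibition.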

Assays:
Assay in all cases: NCI anticancer screen, dose series, 48 h
MALME-3M melanoma = test system: MALME-3M melanoma
HCT-116 colon = test system: HCT-116 colon
DMS 114 small cell lung = test system: DMS 114 small cell lung
KM20L2 colon = test system: KM20L2 colon
U251 CNS = test system: U251 CNS
SW-620 colon = test system: SW-620 colon
SK-OV-3 ovarian = test system: SK-OV-3 ovarian
HCC-2998 colon = test system: HCC-2998 colon
SK-MEL-5 melanoma = test system: SK-MEL-5 melanoma
SNB-75 CNS = test system: SNB-75 CNS

COC(=O)/C(=C/c1ccc(OC)cc1)C(C(=O)O)=C(C)C
TGI (MALME-3M melanoma): > 100 µM | TGI (HCT-116 colon): > 100 µM | TGI (DMS 114 small cell lung): > 100 µM | TGI (KM20L2 colon): > 100 µM | TGI (U251 CNS): > 100 µM | TGI (SW-620 colon): > 100 µM | TGI (SK-OV-3 ovarian): > 100 µM | TGI (HCC-2998 colon): > 100 µM | TGI (SK-MEL-5 melanoma): > 100 µM

COc1ccc(/C=C2/CN(C(=O)c3ccccc3F)C/C(=C\c3ccc(OC)cc3)C2=O)cc1
GI50 (MALME-3M melanoma): 5.83 µM | TGI (MALME-3M melanoma): 21.3 µM | GI50 (HCT-116 colon): 0.392 µM | TGI (HCT-116 colon): 1.39 µM | GI50 (U251 CNS): 2.18 µM | TGI (U251 CNS): 5.14 µM | GI50 (SW-620 colon): 1.86 µM | TGI (SW-620 colon): 3.84 µM | GI50 (SNB-75 CNS): 11.4 µM | TGI (SNB-75 CNS): 39.8 µM | GI50 (SK-OV-3 ovarian): 4.58 µM | TGI (SK-OV-3 ovarian): 18.3 µM | GI50 (HCC-2998 colon): 1.91 µM | TGI (HCC-2998 colon): 3.48 µM | GI50 (SK-MEL-5 melanoma): 1.88 µM | TGI (SK-MEL-5 melanoma): 4.14 µM

CN(C(=O)c1ccc(F)cc1C(F)(F)F)C1CCN(c2nnc(-c3ccnn3C)c3ccccc23)CC1
GI50 (MALME-3M melanoma): 23.6 µM | TGI (MALME-3M melanoma): > 100 µM | GI50 (HCT-116 colon): 40.8 µM | TGI (HCT-116 colon): > 100 µM | GI50 (U251 CNS): 59.3 µM | TGI (U251 CNS): > 100 µM | GI50 (SW-620 colon): > 100 µM | TGI (SW-620 colon): > 100 µM | GI50 (SNB-75 CNS): 14.5 µM | TGI (SNB-75 CNS): > 100 µM | GI50 (SK-OV-3 ovarian): > 77.9 µM | TGI (SK-OV-3 ovarian): > 100 µM | GI50 (HCC-2998 colon): > 93.3 µM | TGI (HCC-2998 colon): > 100 µM | GI50 (SK-MEL-5 melanoma): 11.6 µM | TGI (SK-MEL-5 melanoma): 30 µM

CCCCOC1CC2(c3ccc(OC)cc3)C(=O)c3ccccc3N2O1 (stereo unspecified)
TGI (MALME-3M melanoma): 58.3 µM | TGI (HCT-116 colon): > 100 µM | TGI (DMS 114 small cell lung): 99.5 µM | TGI (KM20L2 colon): > 10 µM | TGI (U251 CNS): > 10 µM | TGI (SW-620 colon): > 100 µM | TGI (SNB-75 CNS): > 100 µM | TGI (SK-OV-3 ovarian): > 100 µM | TGI (SK-MEL-5 melanoma): 88.4 µM

Cc1oc2ccccc2c(=O)c1Cn1nnc2ccccc21
TGI (MALME-3M melanoma): > 100 µM | TGI (HCT-116 colon): > 100 µM | TGI (U251 CNS): > 100 µM | TGI (SW-620 colon): > 100 µM | TGI (SNB-75 CNS): > 100 µM | TGI (SK-OV-3 ovarian): > 100 µM | TGI (HCC-2998 colon): > 100 µM | TGI (SK-MEL-5 melanoma): 48.5 µM

O=C(NC1CCCCC1)c1c(O)[nH]c(=S)[nH]c1=O
TGI (MALME-3M melanoma): > 100 µM | TGI (HCT-116 colon): > 100 µM | TGI (DMS 114 small cell lung): > 100 µM | TGI (KM20L2 colon): > 100 µM | TGI (U251 CNS): > 100 µM | TGI (SW-620 colon): > 100 µM | TGI (SNB-75 CNS): > 100 µM | TGI (SK-OV-3 ovarian): > 100 µM | TGI (SK-MEL-5 melanoma): > 100 µM

[Cu+2].[Cu+2].[O-]c1ccccc1C=Nc1ccccc1[O-].[O-]c1ccccc1C=Nc1ccccc1[O-]
GI50 (MALME-3M melanoma): 13.7 µM | TGI (MALME-3M melanoma): 27.3 µM | GI50 (HCT-116 colon): 2.47 µM | TGI (HCT-116 colon): 6.55 µM | GI50 (DMS 114 small cell lung): 1.96 µM | TGI (DMS 114 small cell lung): 5.13 µM | GI50 (KM20L2 colon): 8.16 µM | TGI (KM20L2 colon): 28 µM | GI50 (SW-620 colon): 6.61 µM | TGI (SW-620 colon): 26.2 µM | GI50 (SNB-75 CNS): 10.2 µM | TGI (SNB-75 CNS): 21.8 µM | GI50 (SK-OV-3 ovarian): 25.5 µM | TGI (SK-OV-3 ovarian): 40.4 µM | GI50 (HCC-2998 colon): 10.3 µM | TGI (HCC-2998 colon): 22.4 µM | GI50 (SK-MEL-5 melanoma): 3.3 µM | TGI (SK-MEL-5 melanoma): 12 µM

Cc1nc2sc(C(=O)Nc3cccc4ccccc34)c(N)c2cc1C(C)O (stereo unspecified)
GI50 (MALME-3M melanoma): 0.265 µM | TGI (MALME-3M melanoma): > 50 µM | GI50 (HCT-116 colon): 0.233 µM | TGI (HCT-116 colon): > 50 µM | GI50 (U251 CNS): 0.227 µM | TGI (U251 CNS): > 50 µM | GI50 (SW-620 colon): 0.175 µM | TGI (SW-620 colon): > 50 µM | GI50 (SNB-75 CNS): 0.119 µM | TGI (SNB-75 CNS): > 50 µM | GI50 (SK-OV-3 ovarian): 0.196 µM | TGI (SK-OV-3 ovarian): > 50 µM | GI50 (HCC-2998 colon): 0.647 µM | TGI (HCC-2998 colon): > 50 µM | GI50 (SK-MEL-5 melanoma): 0.185 µM | TGI (SK-MEL-5 melanoma): 5.81 µM

CCOc1ccc(NC(=O)Nc2cc(C(C)C)ccc2C)cc1
GI50 (MALME-3M melanoma): 3.74 µM | TGI (MALME-3M melanoma): 18.2 µM | GI50 (HCT-116 colon): 5.73 µM | TGI (HCT-116 colon): 16.1 µM | GI50 (U251 CNS): 5.89 µM | TGI (U251 CNS): 17.8 µM | GI50 (SW-620 colon): 11.2 µM | TGI (SW-620 colon): > 100 µM | GI50 (SNB-75 CNS): 2.82 µM | TGI (SNB-75 CNS): 10.2 µM | GI50 (SK-OV-3 ovarian): 12.3 µM | TGI (SK-OV-3 ovarian): 35.4 µM | GI50 (HCC-2998 colon): 11 µM | TGI (HCC-2998 colon): > 92.2 µM | GI50 (SK-MEL-5 melanoma): > 51.9 µM | TGI (SK-MEL-5 melanoma): > 100 µM

O=C(NO)c1ccc(C(=O)NO)cc1
TGI (MALME-3M melanoma): 51.4 µM | TGI (HCT-116 colon): > 100 µM | TGI (U251 CNS): 35.7 µM | TGI (SW-620 colon): > 100 µM | TGI (SNB-75 CNS): > 100 µM | TGI (SK-OV-3 ovarian): 87.2 µM | TGI (HCC-2998 colon): 45.5 µM | TGI (SK-MEL-5 melanoma): > 100 µM

C=CCN1C(=O)CS/C1=N\NC(=O)c1c(C)nc2sccn12
TGI (MALME-3M melanoma): > 100 µM | TGI (HCT-116 colon): > 100 µM | TGI (DMS 114 small cell lung): > 100 µM | TGI (KM20L2 colon): > 100 µM | TGI (U251 CNS): > 100 µM | TGI (SW-620 colon): > 100 µM | TGI (SK-OV-3 ovarian): > 100 µM | TGI (HCC-2998 colon): > 100 µM | TGI (SK-MEL-5 melanoma): > 100 µM

C[C@@H]1O[C@@H](O[C@H]2C[C@@H](O)[C@]3(CO)C4C(CC[C@]3(O)C2)[C@@]2(O)CC[C@H](C3=CC(=O)OC3)[C@@]2(C)C[C@H]4O)[C@H](O)[C@H](O)[C@H]1O (stereo partly specified)
GI50 (MALME-3M melanoma): 0.0197 µM | TGI (MALME-3M melanoma): 0.0828 µM | GI50 (HCT-116 colon): 0.0174 µM | TGI (HCT-116 colon): 0.056 µM | GI50 (U251 CNS): 0.025 µM | TGI (U251 CNS): 0.0839 µM | GI50 (SW-620 colon): 0.022 µM | TGI (SW-620 colon): 0.0869 µM | GI50 (SNB-75 CNS): 0.0277 µM | TGI (SNB-75 CNS): 0.0946 µM | GI50 (SK-OV-3 ovarian): 0.0203 µM | TGI (SK-OV-3 ovarian): 0.0731 µM | GI50 (HCC-2998 colon): 0.088 µM | TGI (HCC-2998 colon): 0.238 µM | GI50 (SK-MEL-5 melanoma): 0.016 µM | TGI (SK-MEL-5 melanoma): 0.0533 µM

O=C(c1ccccc1)c1ccc(-c2ccc(O)cc2)cc1
GI50 (MALME-3M melanoma): 0.803 µM | TGI (MALME-3M melanoma): 34.9 µM | GI50 (HCT-116 colon): 8.42 µM | TGI (HCT-116 colon): 44.7 µM | GI50 (U251 CNS): 3.69 µM | TGI (U251 CNS): 20.1 µM | GI50 (SW-620 colon): 5.23 µM | TGI (SW-620 colon): > 100 µM | GI50 (SNB-75 CNS): 4.22 µM | TGI (SNB-75 CNS): 34.5 µM | GI50 (SK-OV-3 ovarian): 14.8 µM | TGI (SK-OV-3 ovarian): > 71.6 µM | GI50 (HCC-2998 colon): 15.2 µM | TGI (HCC-2998 colon): 43.9 µM | GI50 (SK-MEL-5 melanoma): 1.05 µM | TGI (SK-MEL-5 melanoma): 11.8 µM

Cn1ncc2cc(-c3cnc(N)c(Cl)c3N3CCC4(CCNC4=O)CC3)ccc21
GI50 (MALME-3M melanoma): 37.5 µM | TGI (MALME-3M melanoma): > 100 µM | GI50 (HCT-116 colon): 37.4 µM | TGI (HCT-116 colon): > 100 µM | GI50 (U251 CNS): 43.7 µM | TGI (U251 CNS): > 100 µM | GI50 (SW-620 colon): 21.3 µM | TGI (SW-620 colon): > 100 µM | GI50 (SNB-75 CNS): 17 µM | TGI (SNB-75 CNS): 77.8 µM | GI50 (SK-OV-3 ovarian): 31.5 µM | TGI (SK-OV-3 ovarian): > 100 µM | GI50 (HCC-2998 colon): > 100 µM | TGI (HCC-2998 colon): > 100 µM | GI50 (SK-MEL-5 melanoma): 11.3 µM | TGI (SK-MEL-5 melanoma): 23.8 µM

O=C1Nc2ccc(F)c3c(OCCO)cc(-c4ccc[nH]4)c1c23
GI50 (MALME-3M melanoma): 3.47 µM | TGI (MALME-3M melanoma): 11.5 µM | GI50 (HCT-116 colon): 1.15 µM | TGI (HCT-116 colon): 20.4 µM | GI50 (U251 CNS): 0.9 µM | TGI (U251 CNS): 6.3 µM | GI50 (SW-620 colon): 0.837 µM | TGI (SW-620 colon): 8.23 µM | GI50 (SNB-75 CNS): 1.52 µM | TGI (SNB-75 CNS): 7.02 µM | GI50 (SK-OV-3 ovarian): 1.47 µM | TGI (SK-OV-3 ovarian): 25 µM | GI50 (HCC-2998 colon): 2.63 µM | TGI (HCC-2998 colon): 10.1 µM | GI50 (SK-MEL-5 melanoma): 2.45 µM | TGI (SK-MEL-5 melanoma): 6.29 µM

O=S(=O)(c1cccc(C(F)(F)F)c1)N1c2ccccc2-n2cccc2C1c1cccnc1 (stereo unspecified)
TGI (MALME-3M melanoma): > 54.5 µM | TGI (HCT-116 colon): > 52 µM | TGI (U251 CNS): > 53.1 µM | TGI (SW-620 colon): > 60.4 µM | TGI (SNB-75 CNS): > 100 µM | TGI (SK-OV-3 ovarian): > 78.9 µM | TGI (HCC-2998 colon): 43.7 µM | TGI (SK-MEL-5 melanoma): > 43 µM
